Data as given in the NIST ThermoML archive (doi:10.1016/j.jct.2010.12.025).
± gives the expanded uncertainty stated by the source.

settings: 298.15 K; 101.33 kPa; Liquid; Vibrating tube method

Row | SMILES | molar volume [m3/mol]
1 | CCCCCCCCCCCCCCN [1-tetradecanamine] | 0.0002655 ± 1e-07
2 | CCCCCCC [heptane] | 0.0001475 ± 1.1e-07
3 | CCCCCCN [1-hexanamine] | 0.0001331 ± 1.1e-07
4 | CCCCCCCCCCCCN [1-dodecanamine] | 0.0002323 ± 2e-07
5 | CCCCCCCN [1-heptanamine] | 0.0001496 ± 1.1e-07
6 | CCCCCCCCCN [1-aminononane] | 0.0001829 ± 1.8e-07
7 | CCCCCCCCCCN [1-decanamine] | 0.000199 ± 2e-07
8 | CCCCCCCCN [1-octanamine] | 0.0001662 ± 1.1e-07

Other lines, results leading:

Row | molar volume [m3/mol] | SMILES
9 | 9.987e-05 ± 1e-07 | CCCCN [1-butanamine]
10 | 0.0001163 ± 1.1e-07 | CCCCCN [1-pentanamine]
11 | 0.000117 ± 1.1e-07 | CC(C)CCN [3-methyl-1-butanamine]
12 | 0.0001172 ± 2.4e-07 | CCC(N)CC [1-ethylpropylamine]
13 | 0.0001065 ± 1e-07 | CC(C)(C)N [2-methyl-2-propanamine]
14 | 8.672e-05 ± 1e-07 | CC(C)N [2-propanamine]
15 | 8.315e-05 ± 1e-07 | CCCN [propan-1-amine]
16 | 0.0001019 ± 1.1e-07 | CCC(C)N (stereo not drawn) [2-butanamine]
17 | 0.0001192 ± 1.3e-07 | CCC(C)(C)N [1,1-dimethylpropylamine]
18 | 0.000101 ± 1e-07 | CC(C)CN [2-methyl-1-propanamine]
